Experimental data as given in patent US11774455B2, “Peptide aptamer for specific recognition of arginine and its application” (INSTITUTE OF SUBTROPICAL AGRICULTURE, CHINESE ACADEMY OF …, priority 2019, dated 2023).

Key:
[1] = Isothermal titration calorimeter binding to other amino acids; settings: amino acids having a similar structure to L-arginine
[2] = Binding verification by isothermal titration calorimeter with L-arginine; settings: ITC; 10 μM peptide aptamer titrated into 1 μM L-arginine, 10 mM PBS, pH 7.4, 37° C.; read-out: binding parameter Kd value
Experimental: In the present invention, a primary sequence of an L-arginine sensing protein which can be recognized with L-arginine is obtained by searching for the L-arginine sensing proteins and transporters from a protein library, followed by cutting the primary sequence of the L-arginine sensing protein into 8 amino acid residues to obtain a peptide library and removing repeated peptide sequences from the peptide library. Next, a molecular simulation is performed on the peptides in the deduplicated peptide library and L-arginine to obtain a peptide aptamer library that can specifically bind to the arginine, and preferably, the peptide aptamer library is selected for experimental verification. Then, a binding verification is carried out on the peptide aptamer library and the arginine by an isothermal titration calorimeter. A verification method is as follows: 1 μM of the L-arginine is titrated with 10 μM of the peptide aptamer, a solvent and a binding buffer is 10 mM PBS buffer, pH is 7.4, and a binding temperature is 37° C., and the peptide aptamer that can specifically bind to the L-arginine can be determined.
Molecular simulation and binding verification of a peptide aptamer with L-arginine • A) Molecular simulation of the peptide aptamer and the L-arginine: AutoDock is used to place the L-arginine on the active site of the peptide aptamer, and its binding mode is predicted. […]

- binding ability to other amino acids (ITC) [1]: no or very weak binding ability
- Kd [2]: 13.3 µM
Sequence: FGHIHEGY [peptide aptamer]
